These results are taken from US7759459B2, “Fluorescent assays for protein kinases” (Albert Einstein College of Medicine of Yeshiva University, priority 2003, dated 2010).

Numbered stars: 1 amine (or outer) side, 2 acyl side, 3 side chain; on linkers, the order of the positions; unused ones are H or OH. Square brackets hold non-standard residues; d marks the D form. Peptide text beside a SMILES is read from it. * marks the point of attachment. X2 = O=C(O)CN(CC(=O)O)c1ccc(-c2c3cc(F)c(=O)cc-3oc3cc(O)c(F)cc23)cc1OCC(=O)*; X1 = O=C([C@H](CO)N(c1ccc([N+](=O)[O-])c2nonc12)[*:1])[*:2]; Acridine9carbonyl = O=C(c1c2ccccc2nc2ccccc12)*; Dansyl = CN(C)c1cccc2c(S(=O)(=O)*)cccc12; Cysteamide = C(CS[*:3])N[*:1]; Sar = CNCC(=O)O

The target in assay [1] is T1, PKCα (Homo sapiens, UniProt P17252). Kind of assay: Fluorescent PKC assay (spectrofluorimetry). The class given is biochemical. Conditions: for Fluorescence enhancement upon phosphorylation (% Change): PKCα-catalyzed phosphorylation, spectrofluorimetry. On the procedure: (§1) Fluorescent PKC assay-Fluorescence assays were performed in triplicate at 30° C. and initiated by addition of ATP to a 100 μL cuvette containing a 50 μL solution of PKC and peptide substrate 2. Final conditions: 62.5 mM HEPES pH 7.4, 3 mM MgCl2, 0.3 mM CaCl2, 0.1 mM EGTA, 1 mM DTT, 0.5 μg/mL phosphatidylserine, 0.1 μg/mL diacylglycerol, 1 mM ATP, and 13 nM PKC. After the addition of ATP, the solution was gently mixed and the time-dependent change in fluorescent intensity (excitation: 520 nm, emission: […]) continuously monitored with a Photon Technology QM-1 spectrofluorimeter.

A further assay has as its system protein kinase C. Kind of assay: Screen of fluorophore-peptide library for fluorescence change in the presence of PKC and ATP. The class given is biochemical. Conditions: Table 3 library. On the procedure: as §1
The peptide H2N-Ser-Phe-Arg-Arg-Arg-Arg-Lys-amide (1) (SEQ ID NO:2) was prepared using an Fmoc-based protocol, spatially segregated, and the free N-terminal amine subsequently modified with an array of fluorophore-containing carboxylic acids (I), aromatic aldehydes (II), and electron deficient aryl halides (III). […] This spatially segregated fluorophore-substituted peptide-based library contains a total of 415 distinct chemical entities (Table 3) and was screened for changes in fluorescence intensity in the presence of PKC and ATP under activating conditions. […] The obvious explanation is that phosphorylation of the peptide fails to induce the desired change in photophysical properties of the appended fluorophore. However, it is also possible that introduction of fluorophores, at various sites along the peptide framework, interferes with PKC-catalyzed phosphorylation. The latter possibility is unlikely, particularly for simple N-monosubstituted peptides, since PKC will phosphorylate peptides containing a wide variety of structurally diverse functionality attached at and/or near the phosphorylatable serine moiety.^24 Nevertheless, a few representative members of the library were evaluated in depth (Table 1). […]. One explanation for the poor fluorescence response of these particular peptides to PKC/ATP could be that these peptides serve as poor PKC substrates. This possibility was addressed by obtaining the PKCα-catalyzed Km and Vmax values using the [γ-^32P]ATP radioactive method.^25 As is clear from Table 1, all five peptides are reasonably effective substrates for PKCα.
Table 3. Structures of 415 compounds tested. The % change observed in fluorescence intensity upon phosphorylation of the compound by protein kinase C is shown in the right column. […] The compound labeled as compound 21 in Table 3 is the same as compound 2 in Example I, which is also shown in Scheme 2.

A further assay concerns PKC in HeLa cells. The assay is described as follows: Microinjection studies in TPA-stimulated living HeLa cells. The class given is cell-based. The following applies: co-injected with peptide 2; 20 μM estimated intracellular concentration. On the procedure: Microinjection Studies-Subconfluent, serum-starved (24 hr), HeLa cells were cultured on 22 mm coverslips in DMEM in a humidified atmosphere containing 5% CO2. […] Microinjections were performed with an Eppendorf (Brinkman Instruments, Westbury, N.Y.) 5246 microinjection apparatus mounted on the microscope inside the environmental chamber. The peptide was estimated to be diluted 10-fold upon microinjection, using the equation for volume (V) flow through a capillary tube:
[formula] where p is the difference in pressure at the ends of the tube (290 hPa), r the radius (0.05 μm) and l the length (10 μm) of the tube, η the viscosity of the injected solution (0.69×10^−2 g/cm-sec), and t the total injection time (0.3 sec). The average volume of a fibroblast was taken as 2 pL.^18 12-O-tetradecanoyl phorbol-13-acetate (TPA) (1 μM) was added to the media following microinjection to stimulate PKC activity. […] Fluorescence intensity measurements were corrected using values from a standard photobleaching curve generated from control experiments with microinjected HeLa cells that had not been treated with TPA. […]

For a further assay, the target named is PKC. Conditions: cited from earlier work.
In assay [2] the target is T1, PKCα. Kind of assay: Protein kinase C assay (Example II). The class given is biochemical. The following applies: for % Change Fluorescence: upon PKC-catalyzed phosphorylation; for Km / Vmax: PKC-catalyzed phosphorylation. On the procedure:
Protein kinase C assay. The kinase-catalyzed reaction was performed in triplicate at 30° C. and initiated by addition of ATP to a solution of PKCα and fluorophore-appended peptide substrate 23 (except in the case of the library, where the assays were performed in a 96 well plate using a fluorescence plate reader). Final conditions: 62.5 mM HEPES, 3 mM MgCl2, 0.3 mM CaCl2, 0.1 mM EGTA, 1 mM DTT, 0.5 μg/mL phosphatidylserine, 0.1 μg/mL diacylglycerol, 1 mM ATP, and 13 nM PKCα (pH 7.4). After the addition of ATP, the solution was gently mixed and the time-dependent change in fluorescent intensity (λexcitation=[…]; λemission=521 nm) continuously monitored with a Photon Technology QM-1 spectrofluorimeter.

In assay [3] the target is T1, PKCα. Kind of assay: Radioactive PKC assay ([γ-32P]ATP). The class given is biochemical. The following applies: Table 2. Here is the method: Radioactive PKC Assay—Radioactive assays were performed in duplicate at 30° C. The final assay volume totaled 40 μl and contained 62.5 mM HEPES (pH 7.4), 0.75 mM CaCl2, 12.5 mM MgCl2, 1 mM dithiothreitol, 0.5 mM EGTA, 7.5 μg/mL phosphatidylserine, 1.6 μg/mL diacylglycerol, and 10 ng of PKC. […] Phosphorylation reactions were initiated by the addition of 10 μL of PKC from a stock solution (20 mM Tris-HCl at pH 7.5, 1 mM dithiothreitol, 1 mM EDTA, and 0.75 mg/mL bovine serum albumin) into 30 μL of assay buffer containing peptide substrate. Reactions were terminated after 5 min by spotting 25 μL aliquots onto phosphocellulose paper disks (2.1 cm in diameter). After 10 s, the disks were immersed in 10% glacial acetic acid and soaked with occasional stirring for at least 1 h. The acetic acid was decanted and the disks were collectively washed with four volumes of 0.5% H3PO4, 1 volume of water, followed by a final acetone rinse. The disks were air dried and then counted in a Beckman LS scintillation counter.

For `N=C(N)NCCC[C@H](NC(=O)[C@H](CCCNC(=N)N)NC(=O)[C@H](CCCNC(=N)N)NC(=O)[C@H](CCCNC(=N)N)NC(=O)[C@H](Cc1ccccc1)NC(=O)[C@H](CO)NC(=O)c1c2ccccc2nc2ccccc12)C(=O)N[C@@H](CCCCN)C(N)=O` (Acridine9carbonyl-SFRRRRK-NH2), the “Fluorescence enhancement upon phosphorylation (% Change)” value on PKCα [1] was 20%. On the same count and under the same terms, in the case of `CN(C)c1cccc2c(S(=O)(=O)N[C@@H](CO)C(=O)N[C@@H](Cc3ccccc3)C(=O)N[C@@H](CCCNC(=N)N)C(=O)N[C@@H](CCCNC(=N)N)C(=O)N[C@@H](CCCNC(=N)N)C(=O)N[C@@H](CCCNC(=N)N)C(=O)N[C@@H](CCCCN)C(N)=O)cccc12` (Dansyl-SFRRRRK-NH2) it was 20%. Still for that read-out and setting: in the case of `N=C(N)NCCC[C@H](NC(=O)[C@H](CCCNC(=N)N)NC(=O)[C@H](CCCNC(=N)N)NC(=O)[C@H](CCCNC(=N)N)NC(=O)[C@H](Cc1ccccc1)NC(=O)[C@H](CO)Nc1ccc([N+](=O)[O-])c2nonc12)C(=O)N[C@@H](CCCCN)C(N)=O` (H-[X1]FRRRRK-NH2) it was 150%. Consider `N#CC1=c2cc3ccccc3cc2=CC1C(CO)C(=O)NC(O)C(=O)NC(C(=O)NC(NC(=N)N)C(=O)NC(NC(=N)N)C(=O)NC(NC(=N)N)C(=O)NC(NC(=N)N)C(=O)NC(N)C(N)=O)c1ccccc1` (centres unmarked) [Compound 90], for which the “% change observed in fluorescence intensity upon phosphorylation of the compound by protein kinase C” value with protein kinase C is less than 10%. The same measure, in the same setting: to `N=C(N)NC(NC(=O)C(NC(=N)N)NC(=O)C(NC(=N)N)NC(=O)C(NC(=N)N)NC(=O)C(NC(=O)C(O)NC(=O)C(CO)C1C=c2cc3ccccc3cc2=C1SC(=N)N)c1ccccc1)C(=O)NC(N)C(N)=O` (centres unmarked) [Compound 91] belongs less than 10%; to `N=C(N)NNC1=c2cc3ccccc3cc2=CC1C(CO)C(=O)NC(C(=O)NC(NC(=N)N)C(=O)NC(NC(=N)N)C(=O)NC(NC(=N)N)C(=O)NC(NC(=N)N)C(=O)NC(N)C(N)=O)c1ccccc1` (centres unmarked) [Compound 92], less than 10%; to `COCCN(CCOC)C1=c2cc3ccccc3cc2=CC1C(CO)C(=O)NC(C(=O)NC(NC(=N)N)C(=O)NC(NC(=N)N)C(=O)NC(NC(=N)N)C(=O)NC(NC(=N)N)C(=O)NC(N)C(N)=O)c1ccccc1` (centres unmarked) [Compound 93], less than 10%. Regarding `CN(C)CCCn1cc(C2=C(c3c[nH]c4ccccc34)C(=O)NC2=O)c2ccccc21` [GF 109203X], in the assay on PKC in HeLa cells, the “effect of inhibitor on TPA-induced enhancement in cellular fluorescence” value was “effectively blocks the TPA-induced enhancement in cellular fluorescence”. Moreover, the Ki result on PKC was “low nanomolar range”.

As to `CN(CC(=O)N[C@@H](CO)C(=O)N[C@@H](Cc1ccccc1)C(=O)N[C@@H](CCCNC(=N)N)C(=O)N[C@@H](CCCNC(=N)N)C(=O)N[C@@H](CCCNC(=N)N)C(=O)N[C@@H](CCCNC(=N)N)C(=O)NCCS)C(=O)COc1cc(-c2c3cc(F)c(=O)cc-3oc3cc(O)c(F)cc23)ccc1N(CC(=O)O)CC(=O)O` [N-Me glycine] (X2-[Sar]SFRRRR-Cysteamide), the “% Change Fluorescence” value at PKCα [2] was 264%. On the same count and under the same terms, in the case of `CNCC(=O)O` [N-methyl glycine] it was 264%.

As a reminder, the Km is the substrate concentration at which the rate is half of its maximum. As a reminder, the Vmax is the top rate of the reaction or transport when substrate is in excess. On to D-proline, for which, on PKCα [2], the Km came to 23.5 µM, the Vmax stood at 1.0 µmol/min/mg and the “% Change Fluorescence” value is reported as 156%.

Broadly, the kcat is the maximal rate divided by the concentration of active sites. “H2N-Ser-Phe-Arg4-Lys(NBD)-amide [peptide 3]”: on PKCα [3], the Km turned out to be 19 ± 1 µM and the kcat is 3.5 ± 0.167 s⁻¹. Further, the “fluorescence intensity change following phosphorylation (in words)” value at PKCα [1] (PKC/ATP, fluorescence assay) was “No Fluorescence Intensity Change”.

For L-proline, on PKCα [2], the Km amounted to 63 µM, the Vmax is 1.9 µmol/min/mg and the “% Change Fluorescence” value was determined as 150%.
